# Test: Sweet potency as logarithm of sweet potency (log SP) relative to sucrose
# Format: functional
row,Structure (SMILES),Log SP
1,CCC(C)C(=O)OC[C@H](C)NC(=O)[C@H](N)CC(=O)O (some centres not stated),2.08
2,CCCC(=O)OC[C@H](C)NC(=O)[C@H](N)CC(=O)O,1.58
3,CC[C@@H](COC(=O)C1CC1)NC(=O)[C@H](N)CC(=O)O,1.38
4,CCC(C)[C@@H](NC(=O)[C@@H](N)CC(=O)O)C(=O)OC(C)C (some centres not stated),0.53
5,C[C@@H](CC1CCCCC1)NC(=O)[C@H](N)CC(=O)O,1.57
6,C[C@@H](CC(=O)OC(C)(C)C)NC(=O)[C@H](N)CC(=O)O,0.68
7,CCOC(=O)[C@H](CO)NC(=O)[C@H](N)CC(=O)O,1.92
8,C=C(C)C(=O)OC[C@H](C)NC(=O)[C@H](N)CC(=O)O,1.99
9,COC(=O)C[C@H](C)NC(=O)[C@H](N)CC(=O)O,0.43
10,CCOC(=O)[C@H](NC(=O)[C@H](N)CC(=O)O)C(=O)OC1CCCCC1,2.68
11,C[C@@H](COC(=O)C1CCCC1)NC(=O)[C@H](N)CC(=O)O,1.7
12,CCCC(=O)OC[C@@H](NC(=O)[C@H](N)CC(=O)O)C(=O)OC,1.43
13,CCOC(=O)C(NC(=O)[C@@H](N)CC(=O)O)C(=O)OCC1C2(C)CCC(C2)C1(C)C (some centres not stated),4.05
14,C[C@@H](Cc1ccc(F)cc1)NC(=O)[C@H](N)CC(=O)O,1.5
15,CCCC(O)[C@H](NC(=O)[C@H](N)CC(=O)O)C(=O)OC (stereo in doubt; 57),0.75
16,CC[C@H](NC(=O)[C@H](N)CC(=O)O)C(=O)OC(C)C,2.15
17,CCC(=O)OC[C@H](C)NC(=O)[C@H](N)CC(=O)O,1.86
18,N[C@H](CC(=O)O)C(=O)N[C@@H](CO)COC(=O)C1CC1,1.96
19,CCCC(=O)OCCNC(=O)[C@H](N)CC(=O)O,0.56
20,CCC[C@@H](NC(=O)[C@H](N)CC(=O)O)C(=O)OC,0.46
21,CC(C)(Cc1ccccc1)NC(=O)[C@H](N)CC(=O)O,1.19

row,Structure (SMILES),Log SP
1,CCCCCOC(=O)[C@H](C)NC(=O)[C@H](N)CC(=O)O,0.68
2,CCCCOC(=O)[C@H](NC(=O)[C@@H](N)CC(=O)O)[C@@H](C)O,1.41
3,CC(C)CC(=O)OC[C@H](C)NC(=O)[C@H](N)CC(=O)O,2.08
4,CC(C)OC(=O)CCNC(=O)[C@H](N)CC(=O)O,0.7
5,CCCOC(=O)[C@H](CC)NC(=O)[C@H](N)CC(=O)O,1.86
6,CCCSC[C@@H](NC(=O)[C@H](N)CC(=O)O)C(=O)OC,2.11
7,C[C@@H](COC(=O)C1CCC1)NC(=O)[C@H](N)CC(=O)O,2.24
8,COC(=O)CC[C@@H](NC(=O)[C@H](N)CC(=O)O)C(=O)OC,2
9,CC(C)COC(=O)[C@H](NC(=O)[C@@H](N)CC(=O)O)[C@H](C)O,1.36
10,CCCCC[C@H](C)NC(=O)[C@H](N)CC(=O)O (stereo in doubt; 12),1.56
11,CC(=O)OC[C@H](CO)NC(=O)[C@H](N)CC(=O)O,1.23
12,COC(=O)[C@H](NC(=O)[C@H](N)CC(=O)O)C(=O)OC1CCCCC1,3.14
13,CC(Cc1ccccc1)NC(=O)[C@H](N)CC(=O)O (some centres not stated),1.56
14,COC(=O)CCCNC(=O)[C@H](N)CC(=O)O,0.13
15,COC(=O)C(NC(=O)[C@@H](N)CC(=O)O)C(=O)OC1C(C)CCCC1C (some centres not stated),4.02
16,CC(C)C(=O)OCCNC(=O)[C@H](N)CC(=O)O,1.16
17,COC(=O)[C@@H](COC(=O)C(C)C)NC(=O)[C@H](N)CC(=O)O,1.65
18,CC(C)(C)OC(=O)CCNC(=O)[C@H](N)CC(=O)O,0.36
19,CC(C)C(=O)OC[C@H](C)NC(=O)[C@H](N)CC(=O)O,1.98
20,CCCCC(=O)OC[C@H](C)NC(=O)[C@H](N)CC(=O)O,0.6
21,COC(=O)C(NC(=O)[C@@H](N)CC(=O)O)C(=O)OC1CC(C)CC(C)(C)C1 (some centres not stated),2.76

row,Structure (SMILES),Log SP
1,CCOC(=O)[C@H](NC(=O)[C@@H](N)CC(=O)O)[C@@H](C)O,0.66
2,C[C@@H](COc1ccccc1)NC(=O)[C@H](N)CC(=O)O,1.19
3,CCOC(=O)[C@H](NC(=O)[C@@H](N)CC(=O)O)[C@H](C)O,1.93
4,COC(=O)[C@@H](CCCNC(C)=O)NC(=O)[C@H](N)CC(=O)O,0.25
5,COC(=O)[C@@H](CSC(C)C)NC(=O)[C@H](N)CC(=O)O,2.23
6,CCCC(=O)OC[C@H](CO)NC(=O)[C@H](N)CC(=O)O,0.58
7,CC(C)OC(=O)[C@H](CO)NC(=O)[C@H](N)CC(=O)O,1.96
8,N[C@H](CC(=O)O)C(=O)N[C@@H](CO)COC(=O)C1CCC1,1.71
9,CC(C)COC(=O)[C@H](NC(=O)[C@@H](N)CC(=O)O)[C@@H](C)O,1.97
10,CCOC(=O)C[C@H](C)NC(=O)[C@H](N)CC(=O)O (stereo in doubt; 128),1.16
11,COC(=O)CNC(=O)[C@H](N)CC(=O)O,0.68
12,CCC(=O)OC[C@@H](NC(=O)[C@H](N)CC(=O)O)C(=O)OC,1.53
13,COC[C@@H](COC(C)=O)NC(=O)[C@H](N)CC(=O)O,0.48
14,CC(C)[C@@H](COC(=O)C1CCC1)NC(=O)[C@H](N)CC(=O)O,1.06
15,CCCCOC(=O)[C@H](CO)NC(=O)[C@H](N)CC(=O)O,1.75
16,CCCC(=O)OC[C@@H](NC(=O)[C@H](N)CC(=O)O)C(C)C,0.4
17,CCCCC[C@H](C)NC(=O)[C@H](N)CC(=O)O (stereo in doubt; 10),1.43
18,CC1CCC1C(=O)OC[C@H](C)NC(=O)[C@H](N)CC(=O)O (some centres not stated),2.13
19,COC(=O)[C@H](CO)NC(=O)[C@H](N)CC(=O)O,1.49
20,COC(=O)[C@@H](CCCCNC(C)=O)NC(=O)[C@H](N)CC(=O)O,0.27
21,CCCCCCC(C)NC(=O)[C@H](N)CC(=O)O (some centres not stated),1.17

row,Structure (SMILES),Log SP
1,CC(CNC(=O)[C@H](N)CC(=O)O)C(=O)OC(C)(C)C (some centres not stated),0.51
2,CC(C)CCC(C)NC(=O)[C@H](N)CC(=O)O (some centres not stated),1.54
3,CC[C@H](NC(=O)[C@H](N)CC(=O)O)C(=O)OC,1.04
4,COC(=O)C(C)C[C@H](NC(=O)[C@@H](N)CC(=O)O)C(=O)OC (some centres not stated),1.15
5,C[C@@H](Cc1ccco1)NC(=O)[C@H](N)CC(=O)O,1.16
6,CCC(C)OC(=O)C[C@H](C)NC(=O)[C@H](N)CC(=O)O (some centres not stated),0.6
7,N[C@H](CC(=O)O)C(=O)NCCOC(=O)C1CC1,1.03
8,COC(=O)[C@H](NC(=O)[C@H](N)CC(=O)O)C(=O)OC1CCCC1,2.92
9,CC[C@@H](COC(=O)C1CCC1)NC(=O)[C@H](N)CC(=O)O,1.4
10,CC(C)C(=O)OC[C@@H](NC(=O)[C@H](N)CC(=O)O)C(C)C,1.1
11,CCC(=O)OC[C@H](CO)NC(=O)[C@H](N)CC(=O)O,1.99
12,CCCCOC(=O)[C@H](C)NC(=O)[C@H](N)CC(=O)O,0.9
13,CC1CC1C(=O)OC[C@H](C)NC(=O)[C@H](N)CC(=O)O (some centres not stated),1.68
14,CCOCC[C@H](C)NC(=O)[C@H](N)CC(=O)O,1.14
15,CCOC(=O)[C@H](NC(=O)[C@H](N)CC(=O)O)C(=O)OC1CCCC1,2.44
16,C[C@H](O)[C@@H](NC(=O)[C@@H](N)CC(=O)O)C(=O)OC1CCCCC1,1.31
17,CCC(C)C(=O)OC[C@H](CO)NC(=O)[C@H](N)CC(=O)O (some centres not stated),1.21
18,CC(C)OC(=O)[C@H](NC(=O)[C@@H](N)CC(=O)O)[C@H](C)O,0.91
19,COC(=O)[C@@H](CCC(C)C)NC(=O)[C@H](N)CC(=O)O,2.11

# — ChEMBL document CHEMBL1121833, “Structure--sweetness relationship of L-aspartyl dipeptide analogues. A receptor site topology” (J Med Chem, 1981)
